The text below walks through data of US10259810B2, “N-sulfonylated pyrazolo[3,4-b]pyridin-6-carboxamides and method of use” (AbbVie S.à.r.l., priority 2015, dated 2019).

Broadly, the EC50 is the concentration that produces a half-maximal response.

Experiment [1] has as its target T1, ΔF508-CFTR (Homo sapiens, UniProt P13569, DEL508-508).
T1 construct: host or cells: CFBE41o-, doxycycline-inducible
In words: CFTR cell surface levels using HRP-tagged ΔF508-CFTR expressing CFBE cells, in the presence of a co-corrector. The experiment is classed as cell-based. The following applies: HRP-tagged ΔF508-CFTR CFBE cells, in the presence of 3 μM co-corrector; for EC50: read-out: EC50. A digest of the protocol:
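Chemiluminescent read-out of surface HRP (15 min, dark) after PBS washes. Activity is normalized as 100×(sample−DMSO)/(3 μM co-corrector alone−DMSO).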

For experiment [2], the target named is T1, ΔF508-CFTR. Description: CFTR cell surface levels using HRP-tagged ΔF508-CFTR expressing CFBE cells, intrinsic corrector capacity. The experiment is classed as cell-based. The note with it: HRP-tagged ΔF508-CFTR expressing CFBE41o- cells, compound alone (intrinsic corrector capacity), 20 hours at 33° C.; for EC50: read-out: EC50. Also on record: % Activation: concentration or dose not given beside the values. A digest of the protocol: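 Read-out: chemiluminescent HRP activity of ECL4-HRP-tagged ΔF508-CFTR at the cell surface, 15 min substrate in dark. Normalized as 100×(sample−DMSO)/(positive control−DMSO).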

T1 sequence (P13569 with tags, fused parts or gaps DEL508-508): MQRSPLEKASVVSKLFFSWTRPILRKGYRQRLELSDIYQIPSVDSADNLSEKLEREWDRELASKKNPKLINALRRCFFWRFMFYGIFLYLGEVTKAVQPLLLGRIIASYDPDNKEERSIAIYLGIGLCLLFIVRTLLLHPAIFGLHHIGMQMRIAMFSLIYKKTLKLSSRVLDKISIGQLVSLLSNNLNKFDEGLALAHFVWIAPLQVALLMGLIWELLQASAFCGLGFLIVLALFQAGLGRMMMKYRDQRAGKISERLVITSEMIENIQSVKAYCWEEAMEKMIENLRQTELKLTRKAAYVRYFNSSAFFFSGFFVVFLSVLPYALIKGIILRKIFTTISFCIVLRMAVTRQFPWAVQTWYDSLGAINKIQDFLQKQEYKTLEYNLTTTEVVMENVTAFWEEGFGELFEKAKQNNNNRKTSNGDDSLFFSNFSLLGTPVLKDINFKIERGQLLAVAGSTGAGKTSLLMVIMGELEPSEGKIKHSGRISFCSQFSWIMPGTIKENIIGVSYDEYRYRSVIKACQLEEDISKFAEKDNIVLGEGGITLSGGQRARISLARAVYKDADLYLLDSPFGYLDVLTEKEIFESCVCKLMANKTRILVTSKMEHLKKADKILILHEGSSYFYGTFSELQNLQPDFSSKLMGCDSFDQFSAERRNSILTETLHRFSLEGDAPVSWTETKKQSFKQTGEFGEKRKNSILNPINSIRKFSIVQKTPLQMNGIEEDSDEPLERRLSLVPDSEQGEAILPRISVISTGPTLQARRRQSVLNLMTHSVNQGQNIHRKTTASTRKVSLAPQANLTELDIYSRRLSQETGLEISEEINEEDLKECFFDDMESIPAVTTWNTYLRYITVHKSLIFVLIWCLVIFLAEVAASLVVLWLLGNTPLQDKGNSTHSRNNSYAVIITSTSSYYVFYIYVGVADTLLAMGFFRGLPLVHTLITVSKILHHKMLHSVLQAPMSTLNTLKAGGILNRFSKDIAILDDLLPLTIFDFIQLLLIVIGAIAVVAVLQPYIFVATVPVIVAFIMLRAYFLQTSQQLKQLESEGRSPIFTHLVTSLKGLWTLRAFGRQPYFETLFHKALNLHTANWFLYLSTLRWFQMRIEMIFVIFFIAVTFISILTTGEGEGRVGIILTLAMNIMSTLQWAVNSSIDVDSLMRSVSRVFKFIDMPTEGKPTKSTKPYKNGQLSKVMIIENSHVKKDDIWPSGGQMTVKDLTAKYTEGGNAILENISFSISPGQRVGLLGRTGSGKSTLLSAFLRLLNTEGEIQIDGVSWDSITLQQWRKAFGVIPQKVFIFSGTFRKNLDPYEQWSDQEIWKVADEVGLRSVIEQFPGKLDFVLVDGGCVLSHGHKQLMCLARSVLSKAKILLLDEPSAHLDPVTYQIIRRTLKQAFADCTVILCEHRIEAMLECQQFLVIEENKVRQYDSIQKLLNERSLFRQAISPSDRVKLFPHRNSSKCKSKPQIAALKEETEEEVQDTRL

As for `CNS(=O)(=O)NC(=O)c1cc(N2CCC(COC)CC2)c2c(C3CCC3)nn(-c3ccc(F)cc3)c2n1` [Compound 669, 3-cyclobutyl-1-(4-fluorophenyl)-4-[4-(methoxymethyl)piperidin-1-yl]-N-(methylsulfamoyl)-1H-pyrazolo[3,4-b]pyridine-6-carboxamide], at ΔF508-CFTR [1], the “% Activation” value came to 394% and the EC50 came to 244 nM. At ΔF508-CFTR [2], the “% Activation” value was 334.9% and the EC50 worked out at 211 nM.

Regarding `COCCS(=O)(=O)NC(=O)c1cc(N2CCC(COC)CC2)c2c(C3CCC3)nn(-c3ccc(F)cc3)c2n1` [Compound 670, 3-cyclobutyl-1-(4-fluorophenyl)-N-(2-methoxyethanesulfonyl)-4-[4-(methoxymethyl)piperidin-1-yl]-1H-pyrazolo[3,4-b]pyridine-6-carboxamide], the “% Activation” value on ΔF508-CFTR [1] was found to be 477.6%; at ΔF508-CFTR [2], 399.2%. In addition, the results for the EC50 at ΔF508-CFTR [1] and at ΔF508-CFTR [2] were 191 nM and 277 nM, respectively.

As to `COCC1CCN(c2cc(C(=O)NS(=O)(=O)N3CCOCC3)nc3c2c(C2CCC2)nn3-c2ccc(F)cc2)CC1` [Compound 671, 3-cyclobutyl-1-(4-fluorophenyl)-4-[4-(methoxymethyl)piperidin-1-yl]-N-(morpholine-4-sulfonyl)-1H-pyrazolo[3,4-b]pyridine-6-carboxamide], on ΔF508-CFTR [1], the “% Activation” value is 346.1% and the EC50 was 107 nM. Moreover, on ΔF508-CFTR [2], the “% Activation” value was 252.95% and the EC50 came to 274 nM.

Turning to `COCC1CCN(c2cc(C(=O)NS(=O)(=O)CCCO)nc3c2c(C2CCC2)nn3-c2ccc(F)cc2)CC1` [Compound 672, 3-cyclobutyl-1-(4-fluorophenyl)-N-(3-hydroxypropane-1-sulfonyl)-4-[4-(methoxymethyl)piperidin-1-yl]-1H-pyrazolo[3,4-b]pyridine-6-carboxamide], on ΔF508-CFTR [1], the “% Activation” value was 422.4% and the concentration for a half-maximal effect (EC50) amounted to 127 nM. Moreover, at ΔF508-CFTR [2], the “% Activation” value is 362.9% and the EC50 came to 331 nM.
